Source: patent US20230167467A1, “METHODS AND COMPOSITIONS FOR THE PRODUCTION OF ISOBUTENE” (University of Alaska Anchorage, priority 2020, published 2023)
Values after ≈ are worked out from the molar mass of the structure shown. Read-outs that look alike come from different tables or passages of the source.

Columns and labels:
[1] = at 20° C.; cited from earlier work
[2] = tested on: Engineered strains of E. coli; type: cell-based
[3] = tested on: 3-HIV; conditions: expressed in E. coli, plasmid based system, synthetic media; cited from earlier work
[4] = cited from earlier work; for Isobutene production: purified M3K
[5] = after solvent exposure, vs positive control

Molecule: C=C(C)C [isobutene]
- aqueous solubility [1]: 30 µg/mL (≈ 535 µM)
- expression of accBC (fatty acid biosynthesis) [2]: downregulated
- expression of bssRS (decreasing biofilm material) [2]: upregulated
- expression of chaperone genes groLS and dnaJK [2]: increased expression
- expression of gad genes [2]: increase in expression
- expression of gadABCE (acid resistance via GABA production) [2]: upregulated
- expression of glpABC (glycerol to glycerone phosphate) [2]: increased in expression
- expression of heat shock proteins and chaperones hslJORUV [2]: no significant changes in expression
- expression of ibpAB [2]: strong upregulation
- expression of ibpAB and clpAB (protein protection and repair) [2]: increased
- expression of marA [2]: upregulated
- change in expression of gene adiA [2, 5]: 0.47 ± 0.86
- change in expression of gene adiC [2, 5]: −1.83 ± 1.03
- change in expression of gene adiY [2, 5]: 0.21 ± 0.65
- change in expression of gene bhsA [2, 5]: 0.43 ± 0.86
- change in expression of gene bssR [2, 5]: 3.93 ± 0.44
- change in expression of gene bssS [2, 5]: 3.75 ± 0.84
- change in expression of gene clpA [2, 5]: 1.73 ± 0.64
- change in expression of gene clpB [2, 5]: 2.85 ± 0.69
- change in expression of gene clpP [2, 5]: 0.09 ± 0.59
- change in expression of gene coaA [2, 5]: −4.22 ± 0.95
- change in expression of gene coaD [2, 5]: −3.52 ± 1.24
- change in expression of gene cspA [2, 5]: −8.13 ± 0.67
- change in expression of gene cspB [2, 5]: −9.03 ± 1.74
- change in expression of gene cspC [2, 5]: −2.50 ± 0.94
- change in expression of gene cspD [2, 5]: 3.12 ± 0.58
- change in expression of gene cspE [2, 5]: −0.85 ± 0.63
- change in expression of gene cspF [2, 5]: −7.27 ± 1.56
- change in expression of gene dhaK [2, 5]: 2.25 ± 0.59
- change in expression of gene dhaL [2, 5]: 0.48 ± 0.65
- change in expression of gene dnaJ [2, 5]: 0.17 ± 0.70
- change in expression of gene dnaK [2, 5]: 2.71 ± 0.66
- change in expression of gene fabA [2, 5]: −2.35 ± 0.81
- change in expression of gene fabB [2, 5]: −0.08 ± 0.68
- change in expression of gene fabD [2, 5]: −1.92 ± 0.54
- change in expression of gene flgA [2, 5]: −3.93 ± 1.72
- change in expression of gene flgB [2, 5]: −7.15 ± 1.90
- change in expression of gene flgC [2, 5]: −8.24 ± 2.24
- change in expression of gene flgD [2, 5]: −6.54 ± 2.06
- change in expression of gene flgE [2, 5]: −7.58 ± 1.51
- change in expression of gene flgF [2, 5]: −7.63 ± 1.96
- change in expression of gene flgG [2, 5]: −6.35 ± 1.72
- change in expression of gene flgH [2, 5]: −4.44 ± 1.88
- change in expression of gene gabD [2, 5]: −0.64 ± 1.36
- change in expression of gene gabP [2, 5]: −3.65 ± 1.55
- change in expression of gene gabT [2, 5]: −1.79 ± 1.38
- change in expression of gene gadA [2, 5]: 1.22 ± 0.68
- change in expression of gene gadB [2, 5]: 2.70 ± 0.79
- change in expression of gene gadC [2, 5]: 3.17 ± 0.80
- change in expression of gene gadE [2, 5]: 1.75 ± 0.60
- change in expression of gene gadW [2, 5]: −4.21 ± 1.02
- change in expression of gene gadX [2, 5]: −1.69 ± 0.57
- change in expression of gene gadY [2, 5]: −1.72 ± 0.78
- change in expression of gene glpA [2, 5]: 9.06 ± 0.87
- change in expression of gene glpB [2, 5]: 6.10 ± 0.63
- change in expression of gene glpC [2, 5]: 6.02 ± 0.80
- change in expression of gene groL [2, 5]: 2.61 ± 0.57
- change in expression of gene groS [2, 5]: 1.62 ± 0.50
- change in expression of gene hchA [2, 5]: 3.41 ± 0.60
- change in expression of gene hslJ [2, 5]: −1.24 ± 0.71
- change in expression of gene hslO [2, 5]: −0.29 ± 0.66
- change in expression of gene hslR [2, 5]: −0.04 ± 0.67
- change in expression of gene hslU [2, 5]: 0.23 ± 0.56
- change in expression of gene hslV [2, 5]: −1.15 ± 0.66
- change in expression of gene ibpA [2, 5]: 3.97 ± 1.21
- change in expression of gene ibpB [2, 5]: 3.99 ± 1.50
- change in expression of gene lhgO [2, 5]: −1.00 ± 1.77
- change in expression of gene lipA [2, 5]: −1.56 ± 0.63
- change in expression of gene lipB [2, 5]: −4.07 ± 0.88
- change in expression of gene narG [2, 5]: 4.31 ± 0.65
- change in expression of gene narH [2, 5]: 3.55 ± 0.61
- change in expression of gene narI [2, 5]: 1.31 ± 0.94
- change in expression of gene narJ [2, 5]: 2.32 ± 0.68
- change in expression of gene narK [2, 5]: −0.07 ± 0.89
- change in expression of gene potA [2, 5]: −5.02 ± 0.89
- change in expression of gene potB [2, 5]: −4.42 ± 1.50
- change in expression of gene potC [2, 5]: −3.91 ± 1.44
- change in expression of gene pspA [2, 5]: 7.14 ± 0.55
- change in expression of gene pspB [2, 5]: 4.56 ± 0.68
- change in expression of gene rpoA [2, 5]: −0.01 ± 0.44
- change in expression of gene rpoB [2, 5]: −0.34 ± 0.40
- change in expression of gene rpoC [2, 5]: −0.44 ± 0.39
- change in expression of gene rpoD [2, 5]: −0.24 ± 0.70
- change in expression of gene rpoE [2, 5]: −1.87 ± 0.62
- change in expression of gene rpoH [2, 5]: 0.42 ± 0.52
- change in expression of gene rpoN [2, 5]: −1.57 ± 0.49
- change in expression of gene rpoS [2, 5]: 0.24 ± 0.48
- change in expression of gene rpoZ [2, 5]: −2.12 ± 0.55
- change in expression of gene spy [2, 5]: 2.48 ± 0.88
- change in expression of gene tatA [2, 5]: −1.83 ± 0.52
- change in expression of gene tatB [2, 5]: −2.68 ± 0.61
- change in expression of gene tatC [2, 5]: −3.61 ± 1.20
- change in expression of gene tatD [2, 5]: −4.46 ± 1.28
- change in expression of gene tatE [2, 5]: 0.70 ± 0.64
- number of genes with significant changes in expression ([2]; vs control, Bon Ferroni corrected p-value<0.05): 1384 genes

B1: M3K: mevalonate-3-kinase of Picrophilus torridus, enzyme and gene/transcript (optimized gene SEQ ID NO:1) (protein)
chain: MENYNVKTRAFPTIGIILLGGISDKKNRIPLHTTAGIAYTGINNDVYTETKLYVSKDEKSYIDGKEIDLNSDRSPSKVIDKFKHEILMRVNLDDENNLSIDSRNFNILSGSSDSGAAALGECIESIFEYNINIFTFENDLQRISESVGRSLYGGLTVNYANGRESLTEPLLEPEAFNNFTIIGAHFNIDRKPSNEIHENIIKHENYRERIKSAERKAKKLEELSRNANIKGIFELAESDTVEYHKMLHDVGVDIINDRMENLIERVKEMKNNFWNSYIVTGGPNVFVITEKKDVDKAMEGLNDLCDDIRLLKVAGKPQVISKNF
modifications: optimized gene; M3K optimized gene
- isobutene production rates [3]: up to 507 pmol min^−1 g cells^−1
- highest overall bioproduction of isobutene ([4]; purified M3K enzyme with 3-HIV, 50° C.): 2,880±140 pmol/min*mg protein
- Isobutene production ([4]; 30° C.): 26±2 pmol*min-1 *mg protein
- Isobutene production ([4]; 50° C.): 2,880±140 pmol*min-1 *mg protein
